Test results reported in article PMC6554663, “Pharmaceutical Effects of Inhibiting the Soluble Epoxide Hydrolase in Canine Osteoarthritis” (Frontiers in Pharmacology, 2019).
“Also recorded” adds a separate entry of the source.

Experiments:
aged beagle dogs with OA = assay: Pain and function assessment (modified CBPI questionnaire) in arthritic dogs; type: in vivo, dog
Protocol: The study was conducted as a blinded, parallel matched-group design. Dogs were randomized into groups based on pretreatment pain scores and each group was randomly assigned a treatment. Prior to randomization, each dog was assessed for arthritis by radiograph to assess the severity of OA by presence of osteophytes, subchondral sclerosis or joint effusion each scored on a scale of 0 (least) to 3 (worst) for each of 12 joints. Severity of the radiograph score was included in the randomization protocol and distributed between the groups, and there were no statistical differences between the averages of each group. Individual radiograph scores can be found in Supplementary Table S2. […] Compounds were dissolved in PEG300 to a concentration of 2.4 mg/mL (1 mg/kg) and 12 mg/mL (5 mg/kg) and administered as approximately 5 mL in size 12 gelatin capsules (Torpac) administered once daily on days 1 through 5. Vehicle group consisted of 5 mL PEG300 in capsule. Concurrent medications were not allowed and not needed during the study.
Pain and function were assessed by a questionnaire answered by blinded technicians based on observation of study animals housed at InterVivo. The survey was adapted from the canine brief pain inventory (CBPI), which was developed based on clinical questionnaires in which owners score the function and pain level of their pets with existing pain conditions ([Brown et al., 2007]). Modifications to the questionnaire attempted to account for differences between owner pain evaluation of pets and pain evaluation of laboratory dogs by technical staff. For survey administration, blinded technicians attempted to elicit objective behavior-specific measures of function and pain level across a variety of normal canine behaviors (e.g., walking, trotting, galloping, rearing, and stair-climbing, etc.). For this, one technician was responsible for soliciting the relevant behaviors from a dog using encouragement and/or food rewards, while the evaluating technician scored function and observable pain using the modified CBPI questionnaire. Subjects were tested daily on Days -7 through -3, to develop baseline scores, and again on Days 1 through 5 administered 1.5 h after dosing. Dosing occurred in the morning, and observations were recorded 1.5 h after dosing, to limit time-of-day variability. Questions are listed in Supplementary Table S3. […]
Canine pain and function data were analyzed using ANOVA, linear mixed effects model, with Tukey adjustment in R and repeated measures ANOVA. Correlations coefficients were calculated in Graphpad Prism using the non-parametric Spearman correlation coefficient. In vitro experiments were analyzed using ANOVA in Graphpad Prism. […]

Canine sEH = biological target: T1, Canine sEH (Canis lupus familiaris, UniProt A0A8I3NJL8); assay: Canine sEH inhibition IC50; type: biochemical; conditions: canine enzyme partially purified from liver cytosol
T1 construct: canine enzyme was partially purified on a Q-sepharose column from liver cytosol; from tissue; host or cells: dog liver cytosol, about 10-fold purification on Q-sepharose
T1 sequence (A0A8I3NJL8 1-556): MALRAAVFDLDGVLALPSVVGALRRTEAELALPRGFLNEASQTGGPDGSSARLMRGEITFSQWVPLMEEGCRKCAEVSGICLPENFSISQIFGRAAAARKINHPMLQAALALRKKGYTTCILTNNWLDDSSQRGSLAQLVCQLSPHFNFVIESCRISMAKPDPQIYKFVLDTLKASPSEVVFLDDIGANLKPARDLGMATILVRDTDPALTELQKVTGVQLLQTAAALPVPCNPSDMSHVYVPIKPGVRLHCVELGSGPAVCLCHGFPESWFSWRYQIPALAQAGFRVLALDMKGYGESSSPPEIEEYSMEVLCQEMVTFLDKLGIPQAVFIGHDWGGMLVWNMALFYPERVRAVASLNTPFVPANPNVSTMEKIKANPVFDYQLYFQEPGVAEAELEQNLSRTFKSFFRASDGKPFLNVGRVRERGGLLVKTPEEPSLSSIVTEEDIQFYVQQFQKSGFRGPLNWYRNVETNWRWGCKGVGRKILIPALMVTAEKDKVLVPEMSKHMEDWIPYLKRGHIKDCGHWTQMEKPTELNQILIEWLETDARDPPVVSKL

Row | melting point | IC50 (Canine sEH) | SMILES | function scores compared to the other groups (trend) (aged beagle dogs with OA; 5 mg/kg oral once daily) | pain compared to placebo / vehicle control (aged beagle dogs with OA; 5 mg/kg oral once daily for 5 days, p < 0.05) | increase in function (aged beagle dogs with OA; 5 mg/kg oral once daily, after 5-days of dosing) | reduction in pain compared to predose values (maximum effect) (aged beagle dogs with OA; 5 mg/kg oral once daily, day 4, average)
1 |  |  | O=C(Nc1ccc(OC(F)(F)F)cc1)N[C@H]1CC[C@H](Oc2ccc(C(=O)O)cc2)CC1 [EC1728, trans-4-{4-[3-(4-trifluoromethoxy-phenyl)-ureido]-cyclohexyloxy}-benzoic acid] | tended to have increased function scores | significantly reduced pain; also recorded: significantly less pain | 16% | 44%
2 | 92.4 to 94.7 °C | 4.42 nM | CN(C(=O)N[C@H]1CC[C@H](Oc2ccc(C(=O)O)cc2)CC1)c1ccc(OC(F)(F)F)cc1 [EC3039, trans-4-{4-[3-methyl-3-(4-trifluoromethoxy-phenyl)-ureido]-cyclohexyloxy}-benzoic acid] |  |  |  | 
